Among the data in PubChem BioAssay (NCI) are GI50 and TGI values, retold here.

“And” between values parts separate entries of the source, which are not always exact repeats. Equal entries are not always repeated.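 Each compound was tested at five concentrations against cells in 96-well plates for 48 hours. GI50 is the concentration that inhibits growth by half. TGI: total growth inhibition.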 Some results are limits rather than exact numbers.

For the first test, the system named is 786-0 renal. The experiment in a line: NCI anticancer screen, dose series, 48 h.
For the compound `C=C(C)[C@@H]1CC[C@]2(COCCCN)CC[C@]3(C)[C@H](CC[C@@H]4[C@@](C)(CCCNCCCN)[C@H](C(=C)C)CC[C@]43C)[C@@H]12`, the GI50 is 1.56 µM and the TGI was determined as 2.96 µM.

`O=C(O)CSCCc1ccccc1` returned a TGI of over 100 µM.

On to `CCOC1C(Br)Cn2c(=O)c3cc4ccccc4cc3c(=O)n2C1C` (configuration not stated), for which the TGI is over 100 µM.

`COc1ccc(C(C#N)NC23CC4CC(CC(C4)C2)C3)cc1` (configuration not stated) registered a TGI of over 100 µM.

In turn, `COc1ccc(NC(=O)CC/C(CC(=O)c2ccco2)=N/NC(=O)C(N)=O)cc1` gave a TGI of over 100 µM.

As for `CC(C)(C)c1cc([N+](=O)[O-])cc([N+](=O)[O-])c1O`, the TGI was over 10 µM.

For `Cc1cc(N(CC(C)Br)CC(C)Br)ccc1N=Nc1ccccc1C(=O)O` (configuration not stated), the TGI came out at 16.4 µM.

As for `CCN(CC)CCCC(CCl)Nc1ccnc2cc(Cl)ccc12` (configuration not stated), the GI50 was 14.8 µM and 18 µM; the TGI was 32.8 µM and 62 µM.

Regarding `COc1ccc2c(c1)C(=O)/C(=C/c1cccc(OCC(=O)c3ccccc3)c1)O2`, the GI50 is 4.59 µM and the TGI amounted to 17.5 µM.

Regarding `O=C(O)c1ccc(CN2CCC(CN[C@@H]3C[C@H]3c3ccccc3)CC2)cc1`, the GI50 was over 100 µM and the TGI is over 100 µM.

Turning to `O=C1NC(=S)S/C1=C/c1ccc2c(c1)OCO2`, the GI50 is over 100 µM and the TGI is over 100 µM.

For the compound `O=C1C=CC(=O)C2C1C1(Cl)C(Cl)=C(Cl)C2(Cl)C1(Cl)Cl` (configuration not stated), the GI50 was 12.5 µM and the TGI worked out at 30.1 µM.

For `C=CC(=O)N1CCC(Oc2cc3c(Nc4ccc(Cl)c(Cl)c4F)ncnc3cc2OC)CC1`, the GI50 is 1.96 µM and 1.63 µM; the TGI was 17.7 µM and > 10 µM.

Turning to `CC(=O)OC1OC([C@H]2c3cccc(O)c3C(=O)c3c(O)cc(C)cc32)C(O)C(O)C1O` (some centres not stated), the GI50 was 0.0334 µM and the TGI came out at 1.99 µM.

The compound `CNC(=O)OCc1c(COC(=O)NC)c(-c2ccc(-c3ccccc3)cc2)n(C)c1C` displayed a TGI of 10.2 µM.

In the case of `COc1cccc2c1C(=N)c1c(O)c3c(c(O)c1C2=O)C[C@@](O)(C(C)=O)C[C@@H]3O[C@H]1C[C@H](N)[C@H](O)[C@H](C)O1`, the GI50 was 0.254 µM and the TGI stood at 4.28 µM.

In the case of `Cc1cn(-c2cc(NC(=O)c3cccc(C#Cc4cccc5[nH]nc(N)c45)c3)cc(C(F)(F)F)c2)cn1`, the GI50 was 4.72 µM and the TGI amounted to 20.6 µM.

Compound `CN(C)CCC(=O)N1C/C(=C\c2ccc(Cl)c(Cl)c2)C(=O)/C(=C/c2ccc(Cl)c(Cl)c2)C1` gave a TGI of 0.323 µM.

Another test deals with CAKI-1 renal. In words: NCI anticancer screen, dose series, 48 h.
Turning to `C=C(C)[C@@H]1CC[C@]2(COCCCN)CC[C@]3(C)[C@H](CC[C@@H]4[C@@](C)(CCCNCCCN)[C@H](C(=C)C)CC[C@]43C)[C@@H]12`, the GI50 was 1.75 µM and the TGI is 3.13 µM.

For `O=C(O)CSCCc1ccccc1`, the TGI was over 100 µM.

For the compound `CCOC1C(Br)Cn2c(=O)c3cc4ccccc4cc3c(=O)n2C1C` (configuration not stated), the TGI is over 100 µM.

Consider `COc1ccc(C(C#N)NC23CC4CC(CC(C4)C2)C3)cc1` (configuration not stated), for which the TGI is over 100 µM.

Consider `COc1ccc(NC(=O)CC/C(CC(=O)c2ccco2)=N/NC(=O)C(N)=O)cc1`, for which the TGI was over 100 µM.

Take `CC(C)(C)c1cc([N+](=O)[O-])cc([N+](=O)[O-])c1O`: the TGI is over 10 µM.

Turning to `Cc1cc(N(CC(C)Br)CC(C)Br)ccc1N=Nc1ccccc1C(=O)O` (configuration not stated), the TGI came to 6.9 µM.

Turning to `CCN(CC)CCCC(CCl)Nc1ccnc2cc(Cl)ccc12` (configuration not stated), the GI50 was 22.1 µM and 16.2 µM; the TGI is 47.5 µM and 44.8 µM.

In the case of `COc1ccc2c(c1)C(=O)/C(=C/c1cccc(OCC(=O)c3ccccc3)c1)O2`, the GI50 is 3.16 µM and the TGI came to 11.5 µM.

As for `O=C(O)c1ccc(CN2CCC(CN[C@@H]3C[C@H]3c3ccccc3)CC2)cc1`, the GI50 was over 100 µM and the TGI is over 100 µM.

With `O=C1NC(=S)S/C1=C/c1ccc2c(c1)OCO2`, the GI50 is over 100 µM and the TGI is over 100 µM.

On to `O=C1C=CC(=O)C2C1C1(Cl)C(Cl)=C(Cl)C2(Cl)C1(Cl)Cl` (configuration not stated), for which the GI50 was 2.84 µM and the TGI stood at 12.1 µM.

`C=CC(=O)N1CCC(Oc2cc3c(Nc4ccc(Cl)c(Cl)c4F)ncnc3cc2OC)CC1`: the TGI was 12.6 µM and 2.36 µM.

Regarding `CC(=O)OC1OC([C@H]2c3cccc(O)c3C(=O)c3c(O)cc(C)cc32)C(O)C(O)C1O` (some centres not stated), the GI50 was 0.0773 µM and the TGI came out at 0.544 µM.

`CNC(=O)OCc1c(COC(=O)NC)c(-c2ccc(-c3ccccc3)cc2)n(C)c1C`: the TGI was 5.14 µM.

`COc1cccc2c1C(=N)c1c(O)c3c(c(O)c1C2=O)C[C@@](O)(C(C)=O)C[C@@H]3O[C@H]1C[C@H](N)[C@H](O)[C@H](C)O1`: the GI50 is 0.445 µM and the TGI was 4.07 µM.

For `Cc1cn(-c2cc(NC(=O)c3cccc(C#Cc4cccc5[nH]nc(N)c45)c3)cc(C(F)(F)F)c2)cn1`, the GI50 is 4.23 µM and the TGI worked out at 16.6 µM.

`CN(C)CCC(=O)N1C/C(=C\c2ccc(Cl)c(Cl)c2)C(=O)/C(=C/c2ccc(Cl)c(Cl)c2)C1`: the TGI was determined as 0.984 µM.

In another test the test system is COLO 205 colon. The experiment in a line: NCI anticancer screen, dose series, 48 h.
For the compound `C=C(C)[C@@H]1CC[C@]2(COCCCN)CC[C@]3(C)[C@H](CC[C@@H]4[C@@](C)(CCCNCCCN)[C@H](C(=C)C)CC[C@]43C)[C@@H]12`, the GI50 is 1.78 µM and the TGI was determined as 3.48 µM.

The compound `O=C(O)CSCCc1ccccc1` gave a TGI of over 100 µM.

`CCOC1C(Br)Cn2c(=O)c3cc4ccccc4cc3c(=O)n2C1C` (configuration not stated) had a TGI of over 100 µM.

On to `COc1ccc(C(C#N)NC23CC4CC(CC(C4)C2)C3)cc1` (configuration not stated), for which the TGI was over 100 µM.

`COc1ccc(NC(=O)CC/C(CC(=O)c2ccco2)=N/NC(=O)C(N)=O)cc1` registered a TGI of over 100 µM.

Compound `CC(C)(C)c1cc([N+](=O)[O-])cc([N+](=O)[O-])c1O` yielded a TGI of over 10 µM.

In turn, `Cc1cc(N(CC(C)Br)CC(C)Br)ccc1N=Nc1ccccc1C(=O)O` (configuration not stated) gave a TGI of 19.7 µM.

Take `CCN(CC)CCCC(CCl)Nc1ccnc2cc(Cl)ccc12` (configuration not stated): the GI50 is 29.5 µM and 15.1 µM; the TGI is over 100 µM.

For the compound `COc1ccc2c(c1)C(=O)/C(=C/c1cccc(OCC(=O)c3ccccc3)c1)O2`, the GI50 is 1.9 µM and the TGI amounted to 3.57 µM.
